From ChEMBL document CHEMBL1144214, “Structure-activity relationships of compounds targeting mycobacterium tuberculosis 1-deoxy-D-xylulose 5-phosphate synthase” (Bioorg Med Chem Lett, 2008)
≈ marks a conversion by molar mass, not a printed value.

What was measured:
[1] = target: T1, 1-deoxy-D-xylulose-5-phosphate synthase (Mycobacterium tuberculosis, UniProt P9WNS3); assay: Inhibition of Mycobacterium tuberculosis cloned 1-deoxy-D-xylulose-5-phosphate synthase expressed in Escherichia coli
T1 sequence (P9WNS3 whole entry): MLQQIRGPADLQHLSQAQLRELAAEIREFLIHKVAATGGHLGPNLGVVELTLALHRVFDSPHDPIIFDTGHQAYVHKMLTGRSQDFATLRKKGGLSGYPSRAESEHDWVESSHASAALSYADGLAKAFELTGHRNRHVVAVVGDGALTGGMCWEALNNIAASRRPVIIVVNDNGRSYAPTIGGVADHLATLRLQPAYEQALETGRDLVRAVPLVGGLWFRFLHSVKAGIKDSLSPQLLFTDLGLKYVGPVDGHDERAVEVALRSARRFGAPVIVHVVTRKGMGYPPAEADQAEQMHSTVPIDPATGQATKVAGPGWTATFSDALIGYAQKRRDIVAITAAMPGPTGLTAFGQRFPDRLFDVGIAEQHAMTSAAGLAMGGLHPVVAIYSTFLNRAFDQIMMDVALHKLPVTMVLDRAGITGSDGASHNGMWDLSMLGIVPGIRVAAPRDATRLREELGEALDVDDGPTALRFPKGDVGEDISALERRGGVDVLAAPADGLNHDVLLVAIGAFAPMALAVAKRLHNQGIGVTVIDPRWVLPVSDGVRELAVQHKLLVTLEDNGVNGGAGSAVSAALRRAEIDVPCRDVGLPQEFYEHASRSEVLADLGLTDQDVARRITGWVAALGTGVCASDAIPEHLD

[2] = tested on: Mycobacterium tuberculosis; assay: Antituberculosis activity against Mycobacterium tuberculosis; assay type: functional
[3] = tested on: Vero; assay: Cytotoxicity against african green monkey Vero cells; assay type: cell-based; conditions: Chlorocebus sabaeus
[4] = Selectivity index, ratio of IC50 for african green monkey Vero cells to MIC for Mycobacterium tuberculosis; assay type: functional
[5] = target: T2, Transketolase (Homo sapiens, UniProt P29401); assay: Inhibition of human recombinant transketolase expressed in Escherichia coli
T2 sequence (P29401 whole entry): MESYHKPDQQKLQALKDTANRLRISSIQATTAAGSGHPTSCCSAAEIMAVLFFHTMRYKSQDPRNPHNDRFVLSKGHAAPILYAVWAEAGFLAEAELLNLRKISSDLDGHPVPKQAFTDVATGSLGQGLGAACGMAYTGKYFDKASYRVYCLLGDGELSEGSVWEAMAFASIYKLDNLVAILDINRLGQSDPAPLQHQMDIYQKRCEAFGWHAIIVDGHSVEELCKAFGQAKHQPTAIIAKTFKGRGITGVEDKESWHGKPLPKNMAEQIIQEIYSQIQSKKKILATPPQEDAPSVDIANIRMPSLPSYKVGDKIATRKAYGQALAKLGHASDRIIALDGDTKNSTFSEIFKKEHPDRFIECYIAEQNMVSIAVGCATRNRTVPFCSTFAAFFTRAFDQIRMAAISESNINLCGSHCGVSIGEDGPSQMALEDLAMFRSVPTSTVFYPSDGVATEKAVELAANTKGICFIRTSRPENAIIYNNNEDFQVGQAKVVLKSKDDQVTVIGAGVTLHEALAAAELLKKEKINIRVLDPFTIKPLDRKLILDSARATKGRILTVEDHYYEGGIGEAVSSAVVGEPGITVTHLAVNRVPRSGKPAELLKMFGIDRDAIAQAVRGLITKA

With `Oc1cc(-c2ccccc2)nc2c(-c3ccccc3)c(C(F)(F)F)nn12` the IC50 [1] was 23 µM.

With `COc1ccc(-c2c(C(F)(F)F)nn3c(O)cc(-c4ccccc4)nc23)cc1` the IC50 [1] was 20.2 µM.

`CCOC(=O)Cc1c(C)nc2c(-c3ccccc3)cnn2c1O` gave an IC50 [1] greater than 200 µM.

Molecule `Brc1cccc(-c2cnn3c(-c4ccccc4)cc(-c4ccccc4)nc23)c1` has an IC50 [1] greater than 200 µM.

`Cc1nn2c(=O)cc(CSc3ccc(Cl)cc3)[nH]c2c1-c1ccccc1` gave an IC50 [1] of 63.7 µM.

In the case of `Cc1nn2c(=O)cc(-c3ccccc3)[nH]c2c1-c1ccc(Cl)cc1`, the MIC [2] is reported as 14.2 µM (≈ 4.77 µg/mL), the IC50 [3] is reported as 39.5 µM and the IC50 [1] is reported as 34.2 µM. The “Selectivity Index” value [4] was 4.6.

With `COCc1cc(=O)n2nc(C)c(-c3ccc(Cl)cc3)c2[nH]1` the IC50 [1] was greater than 200 µM.

In the case of `Cc1nn2c(=O)cc(CSc3nnnn3-c3ccccc3)[nH]c2c1-c1ccc(Cl)cc1`, the IC50 [1] is reported as 55.1 µM.

In the case of `O=c1cc(Cc2ccccc2)[nH]c2c(-c3ccccc3)c(C(F)(F)F)nn12`, the IC50 [1] is reported as 71.1 µM.

In the case of `COCc1cc(=O)n2ncc(-c3ccc(Cl)cc3)c2[nH]1`, the IC50 [1] is reported as greater than 200 µM.

Work on `Cc1cc(=O)n2ncc(-c3ccc(Cl)cc3)c2[nH]1` yielded an IC50 [1] greater than 200 µM.

`COc1ccc(-c2cc(=O)n3nc(C)c(-c4ccc(F)cc4)c3[nH]2)cc1` showed an MIC [2] of 7.7 µM (≈ 2.69 µg/mL), an IC50 [3] of 35.6 µM and an IC50 [1] of 10.6 µM.

In the case of `Cc1nn2c(=O)cc(-c3ccccc3)[nH]c2c1-c1ccccc1`, the IC50 [1] is reported as 30.6 µM.

In the case of `Cc1nn2c(=O)cc(-c3ccc4ccccc4c3)[nH]c2c1-c1ccccc1`, the IC50 [1] is reported as 19.5 µM.

With `O=c1cc(CCl)[nH]c2c(-c3ccccc3)cnn12` the IC50 [1] was greater than 200 µM.

With `COC(=O)Cc1cc(=O)n2nc(C(F)(F)F)c(-c3ccc(Br)cc3)c2[nH]1` the IC50 [1] was 73 µM.

`Cc1cc(=O)n2nc(C(F)(F)F)c(-c3ccc(Cl)cc3)c2[nH]1` gave an IC50 [1] of 98.4 µM.

For `COc1ccc(-c2cc(=O)n3nc(C)c(-c4ccc(Cl)cc4)c3[nH]2)cc1`, the MIC [2] was 7.6 µM (≈ 2.78 µg/mL), the IC50 [3] was 16 µM and the IC50 [1] was 10.9 µM.

For `O=c1cc(Cc2ccccc2)[nH]c2c(-c3ccc(Cl)cc3)cnn12`, the IC50 [1] was 114 µM and the IC50 [5] was 3.9 µM.

Work on `COc1ccc(-c2cc(=O)n3nc(C)c(-c4ccc(OC)cc4)c3[nH]2)cc1` yielded an MIC [2] of 61.8 µM (≈ 22.3 µg/mL), an IC50 [3] of 80.9 µM and an IC50 [1] of 42.4 µM. For the same molecule, the “Selectivity Index” value [4] was 2.1.

With `CCc1nn2c(=O)cc(-c3ccc(OC)cc3)[nH]c2c1-c1ccc(Cl)cc1` the IC50 [1] was 19.7 µM.

Work on `FC(F)(F)c1cc(-c2ccc(Cl)cc2)nc2c(-c3ccc(Cl)cc3)cnn12` yielded an IC50 [1] greater than 200 µM.

With `O=c1cc(Cc2ccccc2)[nH]c2c(-c3ccc(Cl)cc3)c(C(F)(F)F)nn12` the IC50 [1] was 14 µM.

In the case of `Cc1nn2c(=O)cc(CSc3ccc(Cl)cc3)[nH]c2c1-c1ccc(Cl)cc1`, the IC50 [1] is reported as 41.4 µM.

`COc1ccccc1-c1cc(=O)n2nc(C)c(-c3ccc(Br)cc3)c2[nH]1` gave an IC50 [1] of 53.5 µM.

In the case of `COc1ccc(-c2c(C)nn3c(=O)cc(-c4ccccc4)[nH]c23)cc1`, the IC50 [1] is reported as 90.7 µM.

`Cc1[nH]c2c(-c3ccc(Cl)cc3)c(C(F)(F)F)nn2c(=O)c1Cc1ccccc1` gave an IC50 [1] greater than 200 µM.

With `Cc1cc(=O)n2nc(C(F)(F)F)c(-c3ccc(Br)cc3)c2[nH]1` the IC50 [1] was greater than 200 µM.
